Assay results published in patent US12576099B2, “Ribose-modified cap analog and use thereof” (Beijing Youcare Kechuang Pharmaceutical Technology Co., Ltd., priority 2024, dated 2026).

Key:
[1] = tested on: BALB/C mice; assay: In vivo imaging of Fluc-mRNA LNP expression in mice
Procedure: The LNP preparation containing 5 μg of cap analog-transcribed Fluc-mRNA was intramuscularly injected into female BALB/C mice aged 4 to 6 weeks and weighing 17 to 19 g. At specific time points after administration (6 hours, 12 hours, 24 hours, 48 hours, 96 hours, and 168 hours), the mice were intraperitoneally injected with fluorescence imaging substrate. The mice were then allowed to move freely for 5 minutes, followed by detection of the total radiation intensity of the protein expressed by LNP-carrying mRNA in the mice using an IVIS Spectrum small-animal in vivo imaging system (corresponding to the amount of protein expression).
In the in vivo imaging experiments in mice, the multiple of the total radiation intensity for each group of mice relative to the m6A group is shown in Table 8 (where the total radiation intensity is represented as the given value×10^8 p/s).

[2] = Characterization of lipid nanoparticles encapsulating Fluc-mRNA prepared from different cap structures; assay type: physicochemical; conditions: for Particle size: LNP (YK-009/DSPC/cholesterol/DMG-PEG2000) with Fluc-mRNA transcribed using the named cap analog; for PDI: LNP with Fluc-mRNA transcribed using the named cap analog; for EE: encapsulation efficiency of LNP with Fluc-mRNA transcribed using the named cap analog
Outline: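 LNPs of YK-009/DSPC/cholesterol/DMG-PEG2000 (49:10:39.5:1.5) made by microfluidic mixing with Fluc-mRNA in 50 mM citrate pH 4, lipid:mRNA ~15:1 w/w, then ultrafiltered into PBS and 0.2 μm filtered. Size and PDI by DLS (90°, 25 °C, triplicate); encapsulation efficiency by RiboGreen assay.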

[3] = target: T7 RNA polymerase (Escherichia phage T7, UniProt P00573); assay: In vitro transcription yield of mRNA using cap analogs; assay type: biochemical; conditions: for Yield per unit template: in vitro transcription, 1 μg DNA template, 37° C., 2 hours
Procedure: • (1) Capping synthesis using cap analogs
The plasmid was first linearized with plasmid linearizing enzyme, and then the linearized plasmid was purified. • (2) In vitro transcription and synthesis of mRNA
During the experiment, the volume of materials required for the system was first calculated, and then sample addition was conducted. The system was first added with sterile enzyme-free water, followed by the sequential addition of 10× buffer, NTPs, and cap analogs, mixed well, and gently centrifuged. Nuclease inhibitors, inorganic pyrophosphatase, T7RNA polymerase, and linearized DNA templates were then added thereto. The system was mixed well, gently centrifuged, and incubated at 37° C. After 2 hours of incubation, the system was added with 1 U of DNase I and incubated at 37° C. for another 30 minutes. The mRNA precipitate was then washed with 75% ethanol, and after the ethanol was briefly evaporated to dryness, the mRNA was redissolved in sterile enzyme-free water. • (3) The transcription product was purified, and the in vitro transcription yield of mRNA was recorded. • (4) The obtained mRNA was subjected to an annealing reaction with a probe.

[4] = target: T1, DCP2 enzyme (Schizosaccharomyces pombe, UniProt O13828); assay: Decapping enzyme stability test; assay type: biochemical; conditions: for Decapping rate (%) of DCP2 enzyme: 50 U mRNA decapping enzyme, 37° C., 45 minutes
T1 construct: purchased New England Biolabs
T1 sequence (O13828 1-243 limits assumed): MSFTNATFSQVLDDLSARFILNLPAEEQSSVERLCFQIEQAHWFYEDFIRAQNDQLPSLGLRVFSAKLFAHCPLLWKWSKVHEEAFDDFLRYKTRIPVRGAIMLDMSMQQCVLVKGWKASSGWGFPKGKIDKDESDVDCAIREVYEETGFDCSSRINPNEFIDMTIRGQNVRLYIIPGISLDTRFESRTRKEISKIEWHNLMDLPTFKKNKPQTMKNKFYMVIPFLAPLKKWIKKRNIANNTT
T1 sequence (Q9P805 1-127 partner): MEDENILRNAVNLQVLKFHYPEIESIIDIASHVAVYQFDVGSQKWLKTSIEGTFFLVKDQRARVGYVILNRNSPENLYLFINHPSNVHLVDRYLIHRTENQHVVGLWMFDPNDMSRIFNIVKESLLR
T1 sequence (Q10108 155-180 partner limits assumed): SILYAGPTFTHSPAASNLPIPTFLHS
Outline: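 PAGE-purified RNA ([…]) incubated with 50 U mRNA decapping enzyme in 1×MDE buffer at 37° C. for 45 minutes. Products resolved by PAGE, SYBR Green II stained; decapping rate derived from capped-to-decapped band intensity ratio.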

[5] = 6 h, 5 μg Fluc-mRNA LNP intramuscular, mice
[6] = 12 h, 5 μg Fluc-mRNA LNP intramuscular, mice
[7] = 24 h, 5 μg Fluc-mRNA LNP intramuscular, mice
[8] = 48 h, 5 μg Fluc-mRNA LNP intramuscular, mice
[9] = 96 h, 5 μg Fluc-mRNA LNP intramuscular, mice
[10] = 168 h, 5 μg Fluc-mRNA LNP intramuscular, mice

Chain of T7 RNA polymerase (P00573 whole entry): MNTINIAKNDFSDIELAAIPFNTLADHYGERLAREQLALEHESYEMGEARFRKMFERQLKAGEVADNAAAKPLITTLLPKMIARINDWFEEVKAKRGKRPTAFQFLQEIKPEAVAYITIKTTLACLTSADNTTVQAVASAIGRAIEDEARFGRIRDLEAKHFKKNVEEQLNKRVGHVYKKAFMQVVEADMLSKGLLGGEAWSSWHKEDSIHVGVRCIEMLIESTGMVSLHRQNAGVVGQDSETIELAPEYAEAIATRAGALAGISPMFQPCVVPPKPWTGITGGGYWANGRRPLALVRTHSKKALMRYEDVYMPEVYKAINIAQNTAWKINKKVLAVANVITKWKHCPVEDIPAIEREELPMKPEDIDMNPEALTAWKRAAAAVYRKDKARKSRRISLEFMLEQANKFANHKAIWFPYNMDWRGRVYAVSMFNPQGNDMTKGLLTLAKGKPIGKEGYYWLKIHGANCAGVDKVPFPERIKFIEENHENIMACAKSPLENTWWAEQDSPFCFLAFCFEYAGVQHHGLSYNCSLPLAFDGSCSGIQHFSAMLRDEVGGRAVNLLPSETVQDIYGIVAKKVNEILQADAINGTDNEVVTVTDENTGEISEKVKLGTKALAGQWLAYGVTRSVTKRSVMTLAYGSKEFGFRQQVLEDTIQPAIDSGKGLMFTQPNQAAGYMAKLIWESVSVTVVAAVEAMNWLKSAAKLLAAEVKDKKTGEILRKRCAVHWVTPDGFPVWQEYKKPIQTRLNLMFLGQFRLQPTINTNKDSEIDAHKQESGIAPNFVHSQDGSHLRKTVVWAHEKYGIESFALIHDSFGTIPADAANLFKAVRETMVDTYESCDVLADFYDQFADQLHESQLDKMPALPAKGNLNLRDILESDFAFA

SMILES | Multiple of total radiation intensity relative to m6A ([1]; 6 h) | Total radiation intensity [1, 5] | Multiple of total radiation intensity relative to m6A ([1]; 12 h) | Total radiation intensity [1, 6] | Multiple of total radiation intensity relative to m6A ([1]; 24 h) | Total radiation intensity [1, 7] | Multiple of total radiation intensity relative to m6A ([1]; 48 h) | Total radiation intensity [1, 8] | Multiple of total radiation intensity relative to m6A ([1]; 96 h) | Total radiation intensity [1, 9] | Total radiation intensity [1, 10] | Total radiation intensity ([1]; at 12 hours) | Total radiation intensity, times that of N-7113 ([1]; at 12 hours) | Particle size [2] | PDI [2] | EE [2] | Yield per unit template [3] | Increase relative to 5227 (in vitro transcription yield) [3] | Decapping rate (%) of DCP2 enzyme [4] | Decrease relative to N-7113 (decapping rate) [4] | further results
CO[C@@H]1[C@H](OP(=O)(O)OC[C@H]2O[C@@H](n3cnc4c(=O)[nH]c(N)nc43)[C@H](O)[C@@H]2O)[C@@H](COP(=O)(O)OP(=O)(O)OP(=O)(O)OC[C@H]2O[C@@H]([n+]3cn(C)c4c(=O)[nH]c(N)nc43)[C@H](O)[C@@H]2C(F)F)O[C@H]1n1cnc2c(N)ncnc21 [YK-CAP-110] | 4.1 | 9.52 ×108 p/s | 5.0 | 10.55 ×108 p/s | 4.6 | 3.04 ×108 p/s | 4.4 | 2.30 ×108 p/s | 1.0 | 0.27 ×108 p/s | 0.04 ×108 p/s | 10.55 ×10^8 p/s | 2.4 times | 69.64 nm | 0.033 | 97.7% | 172.1 µg | 28.2% | 10.2% | 33.6% | Total radiation intensity, times that of YK-CAP-101 ([1]; at 12 hours): 11.0 times; Total radiation intensity ([1]; at 48 hours): 2.30 ×10^8 p/s; Total radiation intensity, times that of N-7113 ([1]; at 48 hours): 4.7 times; Total radiation intensity, times that of YK-CAP-101 ([1]; at 48 hours): 12.1 times; Decapping rate lower than that of HN3002 ([4]; relative to HN3002): 13.1%; Decapping rate lower than that of YK-CAP-101 ([4]; relative to YK-CAP-101): 22.2%; Decapping rate lower than that of YK-CAP-102 ([4]; relative to YK-CAP-102): 31.0%; Decapping rate lower than that of YK-CAP-103 ([4]; relative to YK-CAP-103): 26.3%; Decapping rate lower than that of YK-CAP-104 ([4]; relative to YK-CAP-104): 35.9%; Decapping rate lower than that of YK-CAP-105 ([4]; relative to YK-CAP-105): 23.7%; Decapping rate lower than that of compound 14 ([4]; relative to compound 14): 16.6%; Decapping rate lower than that of m6A ([4]; relative to m6A): 23.6%
CO[C@@H]1[C@H](OP(=O)(O)OC[C@H]2O[C@@H](n3cnc4c(=O)[nH]c(N)nc43)[C@H](O)[C@@H]2O)[C@@H](COP(=O)(O)OP(=O)(O)OP(=O)(O)OC[C@@]2(OC)O[C@@H]([n+]3cn(C)c4c(=O)[nH]c(N)nc43)[C@H](O)[C@@H]2O)O[C@H]1n1cnc2c(N)ncnc21 [compound 5227, reference compound] | 1.0 | 2.38 ×108 p/s | 0.7 | 1.45 ×108 p/s | 0.8 | 0.53 ×108 p/s | 0.9 | 0.48 ×108 p/s | 0.9 | 0.07 ×108 p/s | 0.02 ×108 p/s | – | – | 83.34 nm | 0.028 | 94.9% | 134.2 µg | 0% | 23.2% | 20.6% | –
CO[C@@H]1[C@H](OP(=O)(O)OC[C@H]2O[C@@H](n3cnc4c(=O)[nH]c(N)nc43)[C@H](O)[C@@H]2O)[C@@H](COP(=O)(O)OP(=O)(O)OP(=O)(O)OC[C@@]2(CF)O[C@@H]([n+]3cn(C)c4c(=O)[nH]c(N)nc43)[C@H](O)[C@@H]2O)O[C@H]1n1cnc2c(N)ncnc21 [YK-CAP-118] | 3.0 | 7.06 ×108 p/s | 3.0 | 6.28 ×108 p/s | 3.1 | 2.03 ×108 p/s | 2.6 | 1.33 ×108 p/s | 1.2 | 0.35 ×108 p/s | 0.02 ×108 p/s | – | – | 75.84 nm | 0.055 | 97.2% | 172.2 µg | 28.3% | 11.9% | 31.9% | –
CO[C@@H]1[C@H](OP(=O)(O)OC[C@H]2O[C@@H](n3cnc4c(=O)[nH]c(N)nc43)[C@H](O)[C@@H]2O)[C@@H](COP(=O)(O)OP(=O)(O)OP(=O)(O)OC[C@@]2(C(F)F)O[C@@H]([n+]3cn(C)c4c(=O)[nH]c(N)nc43)[C@H](O)[C@@H]2O)O[C@H]1n1cnc2c(N)ncnc21 [YK-CAP-119] | 3.2 | 7.47 ×108 p/s | 3.1 | 6.65 ×108 p/s | 3.3 | 2.15 ×108 p/s | 2.4 | 1.26 ×108 p/s | 1.3 | 0.25 ×108 p/s | 0.02 ×108 p/s | – | – | 82.45 nm | 0.057 | 94.6% | 154.2 µg | 14.9% | 11.4% | 32.4% | –
CCN(CC)C(=O)[C@H]1[C@@H](O)[C@H]([n+]2cn(C)c3c(=O)[nH]c(N)nc32)O[C@@H]1COP(=O)(O)OP(=O)(O)OP(=O)(O)OC[C@H]1O[C@@H](n2cnc3c(N)ncnc32)[C@H](OC)[C@@H]1OP(=O)(O)OC[C@H]1O[C@@H](n2cnc3c(=O)[nH]c(N)nc32)[C@H](O)[C@@H]1O [YK-CAP-111] | 3.7 | 8.61 ×108 p/s | 4.4 | 9.34 ×108 p/s | 4.2 | 2.75 ×108 p/s | 3.8 | 1.95 ×108 p/s | 1.1 | 0.27 ×108 p/s | 0.03 ×108 p/s | 9.34 ×10^8 p/s | 2.2 times | 78.33 nm | 0.053 | 95.1% | 173.5 µg | 29.3% | 11.5% | 32.3% | Total radiation intensity, times that of YK-CAP-101 ([1]; at 12 hours): 9.7 times; Total radiation intensity ([1]; at 48 hours): 1.95 ×10^8 p/s; Total radiation intensity, times that of N-7113 ([1]; at 48 hours): 4.0 times; Total radiation intensity, times that of YK-CAP-101 ([1]; at 48 hours): 10.3 times; Transcription yield, times that of YK-CAP-101 ([3]; relative to YK-CAP-101): 5.3 times; Transcription yield, times that of YK-CAP-102 ([3]; relative to YK-CAP-102): 3.9 times; Transcription yield, times that of YK-CAP-103 ([3]; relative to YK-CAP-103): 2.0 times; Transcription yield, times that of YK-CAP-104 ([3]; relative to YK-CAP-104): 2.4 times; Transcription yield, times that of YK-CAP-105 ([3]; relative to YK-CAP-105): 2.1 times; In vitro transcription yield of mRNA higher than that of compound 14 ([3]; relative to compound 14): 40.8%
